From patent US20070219144A1, “IMMUNOMODULATORY SACCHARIDE COMPOUNDS” (University of Alberta, priority 2006, published 2007)
Entries after “also recorded” stand apart in the source; their conditions may differ.

How the values were obtained:
Assay type in all cases: cell-based, human
TNF-α [1] = assay: Inhibition of IFN-γ/SAC-induced TNF-α production in THP-1 cells after pre-incubation (ELISA); details: for induction of TNF-α production in the IFN-γ/SAC assay / inhibition of TNF-α production induced by IFN-γ/SAC: 5 μM, FIG. 12; for inhibition of TNF-α response induced by IFN-γ/SAC: FIG. 11A; for inhibition of the cytokine response (TNF-α) induced by IFN-γ/SAC: general statement, no concentration given
IL-12p70 [2] = assay: Inhibition of IFN-γ/SAC-induced IL-12p70 production in THP-1 cells after pre-incubation (ELISA); details: for inhibition of IL-12p70 production induced by IFN-γ/SAC: 5 μM, FIG. 13; for inhibition of IL-12p70 response induced by IFN-γ/SAC: 10 or 100 μg/mL, FIG. 11B; for inhibition of the cytokine response (IL-12p70) induced by IFN-γ/SAC: general statement, no concentration given
TNF-α [3] = assay: TNF-α induction in THP-1 cells by compound alone (ELISA); details: 10 or 100 μg/mL
Procedure: (§1) Experiments were conducted to determine the role for the MTX residue. Given its location in the capping motif in LAM from M. tuberculosis, it was hypothesized that the residue may function as an immunomodulatory species. Thus, the ability of 3 and 34 to induce or inhibit the production of the TNF-α and IL-12p70 was evaluated using a human monocytic cell line (THP-1). THP-1 cells were re-suspended at a concentration of 5×10^6 cells/mL in RPMI 1640+10% FCS+1% GPS (200 mM penicillin/streptomycin (Sigma UK)+2 mM L-glutamine (Invitrogen)) and plated into a 48-well plate (500 μL/well). Cells were treated with either 3 or 34 (100 μg and 10 μg/mL) or AraLAM or ManLAM (10 μg/mL) for 24 hours and then stimulated for a further 8 hours with a combination of Staphylococcus aureus Cowan (SAC) (Pansorbin™, Calbiochem, UK) and human IFNγ (1000 U/mL, Preprotech). Following incubation, the supernatants were collected and stored in 200 μL aliquots (−80° C.) and analyzed by ELISA (R&D systems) for IL12p70 and TNF-α production.

IL-12p70 [4] = assay: IL-12p70 induction in THP-1 cells by compound alone (ELISA); details: 10 or 100 μg/mL
Procedure: as §1

Compound | induction of TNF-α production in the IFN-γ/SAC assay (TNF-α [1]) | inhibition of TNF-α production induced by IFN-γ/SAC (TNF-α [1]) | inhibition of IL-12p70 production induced by IFN-γ/SAC (IL-12p70 [2]) | inhibition of TNF-α response induced by IFN-γ/SAC (TNF-α [1]; 100 μg/mL) | inhibition of the cytokine response (TNF-α) induced by IFN-γ/SAC (TNF-α [1]) | inhibition of IL-12p70 response induced by IFN-γ/SAC (IL-12p70 [2]) | inhibition of the cytokine response (IL-12p70) induced by IFN-γ/SAC (IL-12p70 [2]) | induction of TNF-α production (TNF-α [3]) | induction of IL-12p70 production (IL-12p70 [4]) | inhibition of TNF-α response induced by IFN-γ/SAC (TNF-α [1]; 10 μg/mL)
CO[C@H]1O[C@H](CO)[C@@H](O[C@@H]2O[C@@H](CSC)[C@@H](O)[C@@H]2O)[C@H](O)[C@@H]1O [Compound 6, Methyl 4-O-(5-deoxy-5-methylthio-α-L-xylofuranosyl)-α-D-mannopyranoside] | appeared to induce production of TNF-α to varying degrees | none of these compounds inhibited cytokine induction | inhibited induction, but to a degree intermediate between 3 and 34 |  |  |  |  |  |  | 
CO[C@H]1O[C@H](CO)[C@@H](O)[C@H](O)[C@@H]1O[C@H]1O[C@H](CSC)[C@H](O)[C@H]1O [Compound 1, Methyl 2-O-(5-deoxy-5-methylthio-α-D-xylofuranosyl)-α-D-mannopyranoside] | appeared to induce production of TNF-α to varying degrees | none of these compounds inhibited cytokine induction | inhibited induction, but to a degree intermediate between 3 and 34 |  |  |  |  |  |  | 
CO[C@H]1O[C@H](CO)[C@@H](O)[C@H](O[C@H]2O[C@H](CSC)[C@H](O)[C@H]2O)[C@@H]1O [Compound 2, Methyl 3-O-(5-deoxy-5-methylthio-α-D-xylofuranosyl)-α-D-mannopyranoside] | appeared to induce production of TNF-α to varying degrees | none of these compounds inhibited cytokine induction | inhibited induction, but to a degree intermediate between 3 and 34 |  |  |  |  |  |  | 
CO[C@H]1O[C@H](CO)[C@@H](O[C@H]2O[C@H](CSC)[C@H](O)[C@H]2O)[C@H](O)[C@@H]1O [Compound 3, Methyl 4-O-(5-deoxy-5-methylthio-α-D-xylofuranosyl)-α-D-mannopyranoside] |  | inhibited TNF-α production to a similar degree as a 5 μM concentration of ManLAM |  | level of inhibition comparable with ManLAM at 10 μg/mL | modest levels of inhibition; also recorded: modest inhibitory properties | only a very modest effect | modest levels of inhibition; also recorded: modest inhibitory properties | Neither 3 nor 34, when tested at concentrations of 10 or 100 μg/mL, significantly induced the production of these two cytokines; also recorded: did not lead to production | Neither 3 nor 34, when tested at concentrations of 10 or 100 μg/mL, significantly induced the production of these two cytokines; also recorded: did not lead to production | 
CO[C@H]1O[C@H](CO)[C@H](O)[C@H]1O [Compound 35, methyl α-D-xylofuranoside, reference compound] | appeared to induce production of TNF-α to varying degrees | none of these compounds inhibited cytokine induction | inhibited induction, but to a degree intermediate between 3 and 34 |  |  |  |  |  |  | 
CO[C@H]1OC(CO)[C@@H](O[C@H]2O[C@H](C[S+](C)[O-])C(O)[C@@H]2O)[C@H](O)C1O (mixture of isomers) [Compound 34] |  | weaker inhibitor than 3 | less active |  | modest levels of inhibition; also recorded: modest inhibitory properties | only a very modest effect | modest levels of inhibition; also recorded: modest inhibitory properties | Neither 3 nor 34, when tested at concentrations of 10 or 100 μg/mL, significantly induced the production of these two cytokines; also recorded: did not lead to production | Neither 3 nor 34, when tested at concentrations of 10 or 100 μg/mL, significantly induced the production of these two cytokines; also recorded: did not lead to production | less effective and comparable to AraLAM at 10 μg/mL
